Measurements: patent US6767569B1, “Surface decontamination of cooked sausage and processed meat and poultry products” (priority 1999, dated 2004)

Columns and labels:
[1] = test system: Listeria species; experiment: Dip treatment of inoculated frankfurters, qualitative (enrichment) procedure with TECRA Listeria ELISA; format: cell-based, Listeria monocytogenes; parameters: key: POS: Positive indicates that at least one colony grew during the test; NEG: Negative indicated that no colonies grew
Method: Following air drying, one frank per treatment was placed in a sterile Stomacher bag and analyzed quantitatively for residual L. monocytogenes populations. The remaining two franks were retained in sterile Stomacher bags and used for qualitative analysis, if necessary (in the event no surviving cells were detected using quantitative procedures).
The plating techniques used were capable of detection down to 5 cfu/ml (1 colony/0.2 ml) for the spiral plating method and 0.5 cfu/ml for the spread plating method (1 colony/2 ml). In the event that no surviving L. monocytogenes cells were observed using direct plating procedures, two franks per treatment were evaluated using qualitative (enrichment) procedures. A 10 mL aliquot of the retained homogenate was placed added to 90 mL of UVM broth to achieve a 1:10 dilution. These samples were shaken by hand for 1 minute and incubated at 30° C. for 24 h. Following this primary enrichment, 0.1 mL was transferred to 10 mL of Fraser broth and incubated at 30° C. for 24 h. This secondary enrichment was then used to perform an ELISA screening procedure (TECRA Listeria species assay). Results of this qualitative analysis were used to indicate whether the sample was “positive” or “negative” for the presence of Listeria species.
The target inoculation level before treatment was 1,000 CFU/frank. It can be seen that a 2 second treatment is sufficient to remove most, but not all Listeria from the franks. A 10 second treatment reduces the Listeria count below the detection limit of the quantitative assessment procedures, although a few colonies were detected in the qualitative procedure. […] Therefore, the true population of any samples with a population of <90 CFU/frank could not be specifically determined.

[2] = test system: Listeria monocytogenes ATCC. 43256; experiment: D-values for Listeria monocytogenes in peracetic acid solutions (suspension test); format: cell-based
Method: Peracetic acid solutions of 500, 1000, and 2000 mg/L (ppm) were prepared as for Example 1, using deionized water. To 100 mL samples of the solutions, 1.7×10^6 Listeria monocytogenes ATCC. 43256 per mL were added and mixed. The samples were maintained at a preselected temperature ([…], ˜15° C., or ˜22° C.). At 10, 20, 30, 40, and 50 seconds contact time, 1 mL was removed, neutralized, and the Listeria monocytogenes organisms remaining were determined by plating on TSA and incubation. […] D-values (time required to kill one log of the test microorganism—in this case, a reduction in microorganisms from 1.7×10^6 initially to 1.7×10^5) were determined, as shown in TABLE 4. D-values below the detection limit of the test are shown as <2 seconds.

[3] = test system: microorganism; experiment: Contacting the surfaces of the food product with peracetic acid solution; format: cell-based; settings: 1,000 ppm peracetic acid solution for 12 seconds at 8 °C
Description: The decontaminant solution preferably contains from about 500 to about 4,000 ppm of peracetic acid. The optimal concentration depends an the length of time to which the food products are exposed to the decontaminant solution and on the temperature of the decontaminant solution. […] For ensuring complete elimination of resistant microorganisms, such as Listeria, longer times and/or higher peracetic acid concentrations are preferred. Preferred peracetic acid concentrations are from about 1000 to about 2,000 ppm for contact times of 30 seconds to 1 minute to ensure complete kill of Listeria and other undesirable microorganisms at temperatures of from about 8-20° C. Microbiological analysis procedures are carried out periodically on samples of the treated frankfurters to ensure that the conditions used are maintaining a 100% kill of Listeria or other selected microorganisms.

## CC(=O)OO [peracetic acid]
[1]; PAA 100 ppm (actual 114 ppm), 2 sec exposure, 2 sec rinse
  POS/NEG (qualitative analysis after treatment): POS
[1]; PAA 100 ppm (actual 114 ppm), 10 sec exposure, 10 sec rinse
  POS/NEG (qualitative analysis after treatment): POS
[1]; PAA 500 ppm (actual 572 ppm), 2 sec exposure, 2 sec rinse
  POS/NEG (qualitative analysis after treatment): POS
[1]; PAA 500 ppm (actual 572 ppm), 10 sec exposure, 10 sec rinse
  POS/NEG (qualitative analysis after treatment): POS and NEG
[1]; PAA 1000 ppm (actual 1146 ppm), 2 sec exposure, 2 sec rinse
  POS/NEG (qualitative analysis after treatment): NEG and POS
[1]; PAA 1000 ppm (actual 1146 ppm), 10 sec exposure, 10 sec rinse
  POS/NEG (qualitative analysis after treatment): NEG and POS
[2]; 500 mg/L, 8.3-8.5 °C, pH 3.7-3.7
  D-value: 2 s
[2]; 500 mg/L, 14.7-15.0 °C, pH 3.4-3.6
  D-value: <2 s
[2]; 500 mg/L, 22.7-22.8 °C, pH 3.4-3.6
  D-value: <2 s
[2]; 1000 mg/L, 8.1-8.1 °C, pH 3.2-3.4
  D-value: <2 s
[2]; 1000 mg/L, 15.0-15.2 °C, pH 3.2-3.4
  D-value: <2 s
[2]; 2000 mg/L, 8.1-8.4 °C, pH 3.0-3.1
  D-value: <2 s
[2]; 2000 mg/L, temperature range printed 3.0-3.1 °C, pH 3.0-3.1
  D-value: <2 s
[2]; 500, 1000, 2000 mg/L, 10-50 seconds contact, except the sample at 500 mg/L, ~8 °C, 10 seconds
  Listeria monocytogenes organisms remaining: destroyed in all cases
[3]
  reduction in the number of microorganism: six log reduction
